Data set [1] has as its system Human Umbilical Vein Endothelial Cells. The data set is described as follows: TUNEL assay, HUVEC co-cultured with LA1-activated neutrophils. Particulars: LA1-mediated adhesion of neutrophils. The format is cell-based. An excerpt: In support of this argument, neither we nor others studying knock-in animals that express constitutively active mutants of integrins LFA-1 [54, 55] and […]4[…]7 [56] have observed any signs of vascular injury in any experimental model. FIGS. 22A-22E show an absence of apoptosis in co-cultures of LA-1 activated leukocytes and HUVEC cells.

For data set [2], the system named is Human macrophages. In words: TNF-α release from human macrophages. The format is cell-based.
Data set [3] relates to balloon-induced arterial injury. The data set is described as follows: Balloon-induced arterial injury in rats (neointima). The format is in vivo, rat. The procedure: All surgeries were performed under anesthesia by isoflurane (Baxter). Activating mAb ED7 (4 mg/kg/d), the isotype control mIgG1 (4 mg/kg/d, Rockland) and the leukadherin LA1 (1 mg/kg/d) were each administered intra peritoneally (i.p.) in saline daily until the end of the experiment. Balloon injury in the right iliac artery was inflicted with a 2F Fogarty catheter (Baxter) adapted to a custom angiographic kit (Boston Scientific, Scimed). An aortotomy in the abdominal aorta was made to insert a catheter to the level of the right iliac artery. The balloon was inflated to 1.5 to 1.6 atmospheres and retracted to the arteriotomy site three times. The aortic excision was repaired with eight sutures. The abdominal cavity was closed by planes with an interrupted suture pattern. Arterial specimens were collected 21 days after injury and fixed in 4% formalin-PBS (Sigma-Aldrich) for 5 minutes and analyzed by histology and immunostaining. Neointima were measured in H&E stained slides using ImagePro.
Despite significant technological advances in PCI, restenosis (re-narrowing) secondary to neointimal hyperplasia remains a major complication limiting the success of coronary interventions in 5-25% of patients. The recruitment of inflammatory macrophages and other leukocytes precedes neointimal hyperplasia. The denudation of endothelial cell lining at the site of mechanical vascular injury during a PCI procedure leads to the deposition of fibrin and platelets, where selective binding between the platelet cell surface receptor GP lb[…] and leukocytic CD11b/CD18 leads to the migration and recruitment of these inflammatory cells. Indeed, in experimental models, it has been shown that the genetic ablation of CD11b (CD11b−/− animals) or its blockade (using biological antagonists) can reduce neointima formation after angioplasty or stent implantation. […] Here, this experimental arterial balloon injury model was used to examine the relative efficacy of the two types of agonists, in a head-to-head comparison, on inflammatory responses in vivo. First, the dose-dependence of LA1 in this model system was determined. LA1 was administered at two different doses (0.05 or 1 mg/kg/d, intraperitoneal (i.p.)), or the vehicle (DMSO), in a saline solution to SD male rats 30 minutes prior to injury and continued daily injections for the next three weeks and subsequently measured the extent of vascular injury via tissue histology (FIGS. 14A-14D). Data shown are mean±SEM. *p<0.05, **p<0.001.
Next, in order to examine the relative efficacy of LA1 and ED7, LA1 (1 mg/kg/d) or ED7 (4 mg/kg/d) were administered to SD male rats 30 minutes prior to balloon injury and continued daily for the next 21 days. An isotype control antibody (mIgG1, 4 mg/kg/d) was administered to the control group of animals. […] Data shown are mean±SEM. *p<0.05, ***p<0.0001, ns=not significant.

For data set [4], the system named is allograft transplantation. The data set is described as follows: Allograft transplantation model (kidney). The format is in vivo. Particulars: co-treatment with cyclosporine.
Data set [5] deals with Human macrophages. The data set is described as follows: mRNA levels of pro-inflammatory factors in LPS-treated human macrophages. The format is cell-based. Particulars: co-treated with LPS. The procedure: It was shown that β2 integrin agonist leukdherin LA1 modulates the expression levels of various pro-inflammatory factors in cells. Human macrophages were treated with LPS in the absence or presence of LA1 in vitro and determined the levels of mRNA in the cells at various time points using Nanostring inflammation array (184 genes) and exiqon microRNA panels.

For data set [6], the system named is C57BL/6J mice. In words: Survival after sublethal total body irradiation. The format is in vivo. The note with it: 20 μg/animal for seven days. The procedure: Control groups (16 mice per group) of 6-8 weeks old C57BL/6J mice received a single sublethal dose (6 Gy) of total body radiation (TBI) and were monitored for survival with radiation alone. The experimental groups (16 mice per group) of 6-8 weeks old C57BL/6J received a single sublethal dose (6 Gy) of total body radiation (TBI) and were administered leukadherin LA1 (20 μg/animal) for seven consecutive days. Additionally, two additional control groups of animals were monitored—animals with no treatment at all or animals that were administered LA1 for seven consecutive days in the absence of any irradiation.

Data set [7] is described as follows: Solubility of LA1 in oral vehicle formulations and simulated biological fluids (LC-MS). The format is physicochemical. How it is done:
Pilot oral vehicle evaluation. […] Subsequently, re-dispersability of LA1 was tested using two simulated biological fluids—simulated gastric fluid (SGF) and Fasted State Simulated […] Fluid (FaSSIF).

Data set [8] deals with T-cell proliferation. In words: Mixed lymphocyte reaction (MLR). The format is cell-based.
Data set [9] relates to hematopoiesis and HSC compartment. The data set is described as follows: Hematopoiesis and HSC compartment after 6 Gy total body irradiation. The format is in vivo, mice. Particulars: 1 mg/kg i.p. 7 days from 24 hours post 6 Gy TBI; 4 weeks post TBI. How it is done: FIGS. 26A-26C show the analysis of hematopoiesis and HSC compartment in LA1 (Red bars), Vehicle control (Blue bars) treated groups of mice at 4 weeks after 6 Gy of total body irradiation (TBI), showing that LA1 is highly radio-protective and a radio-mitigator. […] Mice were exposed to 6 Gy of TBI (at 0.5 Gy/min), and treated intraperitoneally (i.p.) with LA1 (1 mg/kg) or vehicle alone for 7 consecutive days starting at 24 hours post TBI.

The test system of data set [10] is Cl66 cells. The data set is described as follows: Orthotopic Cl66 mammary adenocarcinoma tumor growth, with or without Taxol. The format is in vivo. Particulars: BALB/c mice. How it is done:
The syngeneic murine mammary adenocarcinoma cell line Cl66 (moderately metastatic and is related to the highly metastatic 4T1 cell line) was orthotopically introduced in Balb/c animals, by injecting ˜5×10^5 Cl66 cells under the left mammary fat pad of WT BALB/c mice (approx. 8-10 weeks old). The tumor size was measured using calipers every other day until the end of the experiment (approx. 5 weeks). 7-days post implantation, the tumors in all animals became palpable, with an average size of ˜100 mm3. At that time, animals in each group were treated as described. LA1 was administered daily for the first two weeks and then every other day until the end of the experiment. Animals in Group 1 received Saline injections, as control. […] It can also enhance the efficacy of traditional chemotherapy in various cancers, including breast cancer, to produce a synergistic response to the treatment. It can also reduce the incidence and the size of metastases.

[11] abbreviates: LA1 1 mg/kg/d, ED7 4 mg/kg/d, 21 days.

Consider one compound from patent US10239871B2, “Compounds and methods for regulating integrins” (ADHAERE PHARMACEUTICALS, INC., priority 2012, dated 2019).

Entries after “also recorded” stand apart in the source; their conditions may differ.

In the case of `O=C(O)c1ccc(-c2ccc(/C=C3\SC(=S)N(Cc4ccccc4)C3=O)o2)cc1` [LA1], in data set [1], the “HUVEC apoptosis (TUNEL)” value is recorded as “does not increase HUVEC apoptosis”. In addition, the cellular morphology entry in data set [2] (LA1 alone) is given as “no effect on cellular morphology”. Further, the “TNF-α release from stimulated macrophages” value in data set [2] (dsRNA antigen (R848) plus LA1, lupus patients and healthy volunteers) is reported as “significantly reduced the TNF-α release; also recorded: significantly impaired”. Further, the “TNF-α induction by LA1 alone” value in data set [2] (over 24 hrs) is listed as “did not induce TNF-α”. In addition, the “neointimal hyperplasia vs vehicle” value in data set [3] (0.05 or 1 mg/kg/d i.p., three weeks, SD male rats) was “significantly less neointimal hyperplasia”. In addition, in data set [3] (0.05 vs 1 mg/kg/d i.p.), the “dose dependence of reduction in mechanical vascular injury” value is recorded as “dose-dependent reduction”. For the same compound, in data set [3] (LA1 1 mg/kg/d vs ED7 4 mg/kg/d, 21 days), the “neointima formation compared to the ED7 group” value is listed as “significantly less neointima formation”. In data set [3] (setting [11]), the “neointimal hyperplasia (NIH) / mechanical vascular injury, significance vs control group” value is “significant reduction in neointimal hyperplasia” and the “neointimal thickening vs control mAb IgG1-treated group” value is listed as “reduced neointimal thickening”. In addition, the “engraftment of the donated kidney” value in data set [4] is “much better engraftment”. Moreover, the “mRNA levels of pro-inflammatory factors upregulated by LPS” value in data set [5] is given as “significantly reduced”. Moreover, in data set [6] (with or without 6 Gy TBI), the animal mortality entry is on record as “did not result in any increase in animal mortality”. Moreover, the “effect on survival after sublethal TBI” value in data set [6] (6 Gy TBI) is given as “protective effect”. Also, the “solubility in vehicle formulation” value in data set [7] (10% Tween80, 20% ETPGS and 30% Captisol, 10 mg/mL slurry, Mg-salt) is 3000 to 4000 µg/mL. The “solubility on re-dispersion in simulated biological fluids” value in [7] (SGF and FaSSIF, 10% Tween80 formulation) is on record as approximately 0.15 mg/mL. Also, the T-cell proliferation result in [8] is “dose-dependently reduces T-cell proliferation”. Moreover, in [9], the “HSC analysis (BM cellularity, frequency of LKS+ BM cells and LKS+ CD150+ CD48− BM cells)” value is recorded as “significant improvement”. Besides, the “rate of tumor growth, co-treatment with Taxol” value in [10] is recorded as “highest reduction in the rate of tumor growth”. The “rate of tumor growth, single agent” value in [10] (vs vehicle) is recorded as “significant reduction in the rate of tumor growth”.
